According to patent publication US20040086535A1, “Novel antiviral acitivities of primate theta defensins and mammalian cathelicidins” (priority 2001, published 2004):
Read-outs that look alike come from different tables or passages of the source. No end group written: not given here.

Experiments:
[1] = tested on: HIV (pNL4-3 strain) in HeLa 37 cells; format: cell-based; details: for anti-retroviral activity of carboxy-terminal peptides (qualitative): HIV, 8 μg/ml, 40 h (FIG. 3B), preliminary studies; for anti-viral activity against HIV, numbers of HIV antigen positive cells (qualitative): theta defensins preincubated 15-30 minutes with HIV, HeLa cells, 40 h
[2] = tested on: EIAV (MA-1 strain) in equine dermal cell line ED; assay: EIAV infectivity, immunostaining of antigen-expressing cells at 40 h; format: cell-based, equine infectious anemia virus; details: for effect on the EIAV virus titer: theta defensins
[3] = % helicity (circular dichroism); format: physicochemical; details: for % helicity in Phos. Buffer: phosphate buffer; for % helicity in phosphate buffer + 40% TFE: phosphate buffer + 40% TFE (parenthetical value)
vaccinia virus = assay: Vaccinia virus replication; format: cell-based; details: similar concentrations
herpes simplex 2 (HSV-2) = assay: HSV-2 plaque formation inhibition, virus preincubated with peptide; format: cell-based, herpes simplex virus 2
herpes simplex 1 (HSV-1) = assay: HSV-1 plaque formation inhibition, virus preincubated with peptide; format: cell-based, herpes simplex virus 1
[4] = Systemic toxicity in mice; details: systemic dose of 5 mg/kg
[5] = mice, lung instillation of 100 μg
cytomegalovirus (CMV) = assay: CMV plaque formation / cytopathology in primary human fibroblasts; format: cell-based; details: for CMV plaque formation: virus preincubated 1 h at 37° C., MOI approx. 5, 14 days post infection
[6] = tested on: primary human fibroblasts
[7] = tested on: adenovirus, a non-enveloped virus; assay: Adenovirus infectivity; format: cell-based; details: similar concentrations (6-8 μg/ml); data not shown
[8] = mouse, in vivo, 5 mg/kg
[9] = tested on: herpes viruses and retroviruses
EIAV (MA-1) = assay: Time course of Ov-1 addition against EIAV, antigen immunostaining of monolayers; format: cell-based, equine infectious anemia virus; details: 10 μg/ml
Description: Studies with EIAV investigating the mode of action of the Ov class antivirals indicate that the peptides are acting early within the viral life cycle, perhaps acting on the viral particle itself. Ten μg/ml of Ov-1 was added to virus stocks of MA-1 either before, at the time of infection or various times following infection. Virus and peptide was then removed from the media 48 h post infection and the infected cultures were maintained for an additional 5 days to allow spread of any virus that is present within the culture. Monolayers were then immunostained for EIAV antigen expression.

Substance: KIIHIIKKYGPTILRIIRIIG-NH2 [Ov-4, carboxy-terminal 21-mer of Ov-1]
- anti-retroviral activity of carboxy-terminal peptides (qualitative) [1]: have anti-retroviral activity

Substance: GICRCICGRGICRCICGR [HTD-1, synthetic peptide specified from human pseudogene, human theta defensin 1]
- enhancement of IC50 by circularization ([1]; oxidized, circularized versus oxidized form): about 10 fold
- anti-viral activity against HIV, numbers of HIV antigen positive cells (qualitative) [1]: greatest anti-viral activity
- anti-viral activity against HIV, numbers of HIV antigen positive cells (qualitative) ([1]; listed as human theta defensin-1): most effective
- effect on the EIAV virus titer [2]: no effect

Substance: KNLRRITRKIIHIIKKYG [Ov-2 (T7)]
- % helicity in Phos. Buffer [3]: 8.0%
- % helicity in phosphate buffer + 40% TFE [3]: 66.8%

Substance: ISRLAGLLRKGGEKIGEKLKKIGQKIKNFFQKLVPQPEQ (listed as Mus musculus) [mCramp, a murine cathelicidin]
- infectivity of HIV (qualitative) [1]: consistently reduced the infectivity
- inhibitory effect on vaccinia virus replication (vaccinia virus): no inhibitory effect
- reduction of herpes simplex 2 replication (herpes simplex 2 (HSV-2)): approximately 75%
- reduction of herpes simplex 1 replication (herpes simplex 1 (HSV-1)): approximately 75%
- infectivity of EIAV (qualitative) [2]: consistently reduced the infectivity

Substance: KNLRRIIRKGIHIIKKYG [Ov-2 (G10)]
- % helicity in Phos. Buffer [3]: 7.4%
- % helicity in phosphate buffer + 40% TFE [3]: 50.4%

Substance: GVCRCLCRRGVCRCLCRR [RTD-3, rhesus monkey theta defensin]
- anti-viral activity against HIV, numbers of HIV antigen positive cells (qualitative) [1]: greatest anti-viral activity
- anti-viral activity against HIV, numbers of HIV antigen positive cells (qualitative) ([1]; listed as rhesus theta defensin-3): most effective

Substance: KNLRRIIRKIIHIIKKYG [Ov-2, KNLRRIIRKIIHIIKKYG]
- adverse effects [4]: no adverse effects
- inflammation, cytokine elevation, blood markers [5]: No imflammation, cytokine elevation or increase in blood markers was detected

Substance: HIIKKYGPTILRIIRIIG-NH2 [Ov-6, 18 carboxyl-terminal amino acids of Ov-1]
- anti-retroviral activity of carboxy-terminal peptides (qualitative) [1]: did not have appreciable anti-viral activity

Substance: IHIIKKYGPTILRIIRIIG-NH2 [Ov-5, carboxy-terminal 19-mer of Ov-1]
- anti-retroviral activity of carboxy-terminal peptides (qualitative) [1]: have anti-retroviral activity

Substance: GFCRCLCRRGVCRCICTR [RTD-1, rhesus monkey theta defensin]
- effect on the EIAV virus titer [2]: no effect

Substance: LRRIIRKIIHIIKK-NH2 [Ov-3, LRRIIRKIIHIIKK-NH2]
- adverse effects [4]: no adverse effects

Substance: KNLRRIIRKIIHIIKKYGPTILRIIRIIG-NH2 [Ov-1]
- CMV plaque formation (cytomegalovirus (CMV); 5 μg/ml): Plaque formation and accompanying monolayer disintegration can be observed
- CMV plaque formation (cytomegalovirus (CMV); 20 μg/ml): No plaque formation was detected
- CMV plaque formation (qualitative) (cytomegalovirus (CMV); 14 days): reduced plaque formation
- decrease of HIV infectivity ([1]; 6-8 μg/ml peptide): greater than 100 fold
- effect on the monolayer of primary human fibroblasts [6]: little to no effect
- effect on infectivity of adenovirus [7]: < 10 fold
- adverse effects [8]: no adverse effects
- inhibition of HSV-2 plaque formation (herpes simplex 2 (HSV-2); 6 μg/ml peptide): 3-6 fold
- inhibition of HSV-2 plaque formation (herpes simplex 2 (HSV-2); 18 μg/ml peptide): approximately 100 fold
- effective LD50 for inhibiting herpes viruses and retroviruses [9]: approximately 3 μg/ml
- % helicity in Phos. Buffer [3]: 43.9%
- % helicity in phosphate buffer + 40% TFE [3]: 97.9%
- outcome of culture (qualitative) (EIAV (MA-1); added 30 minutes or later following virus infection): resulted in infection and spread of the virus throughout the monolayer
- effectiveness in inhibiting virus replication (EIAV (MA-1); added during preincubation or at the time of infection): 100%
- inhibition of HSV-1 plaque formation (herpes simplex 1 (HSV-1); 6 μg/ml peptide): 3-6 fold
- inhibition of HSV-1 plaque formation (herpes simplex 1 (HSV-1); 18 μg/ml peptide): approximately 100 fold
- decrease of EIAV infectivity ([2]; 6-8 μg/ml peptide): greater than 100 fold
